Assay results published in patent US20240000872A1, “NOVEL BACTERIOPHAGE THAT LYSES ACINETOBACTER GENUS BACTERIA HAVING RESISTANCE TO ANTIBIOTICS” (priority 2020, published 2024).

System: Acinetobacter baumannii strains
Experiment: Antibiotic susceptibility test (CLSI disk diffusion test method, read per CLSI 2016); note: key: ‘S’ means susceptible; ‘I’ means intermediate; ‘R’ means resistant
Format: cell-based

In the case of `C[C@@H](O)[C@H]1C(=O)N2C(C(=O)O)=C(SCCN=CN)C[C@H]12` [Imipenem, imipenem], the antibiotic susceptibility class (host strain YMC14/01/C29) is reported as “R”, the antibiotic susceptibility class (host strain YMC14/01/IP122) is reported as “R” and the antibiotic susceptibility class (host strain YMC14/01/L8) is reported as “R”. For the same compound, the antibiotic susceptibility class (host strain YMC14/01/P31) was “R”, the antibiotic susceptibility class (host strain YMC14/01/P117) was “R” and the antibiotic susceptibility class (host strain YMC14/01/P224) was “R”. The antibiotic susceptibility class (host strain YMC14/01/P727) was “R”, the antibiotic susceptibility class (host strain YMC14/01/P728) was “R” and the antibiotic susceptibility class (host strain YMC14/01/R130) was “R”. For the same compound, the antibiotic susceptibility class (host strain YMC14/01/R160) was “R”, the antibiotic susceptibility class (host strain YMC14/01/R198) was “R” and the antibiotic susceptibility class (host strain YMC14/01/R257) was “R”. The antibiotic susceptibility class (host strain YMC14/01/R270) was “R”, the antibiotic susceptibility class (host strain YMC14/01/R324) was “R” and the antibiotic susceptibility class (host strain YMC14/01/R443) was “R”. The antibiotic susceptibility class (host strain YMC14/01/R451) was “R”, the antibiotic susceptibility class (host strain YMC14/01/R560) was “R” and the antibiotic susceptibility class (host strain YMC14/01/R617) was “R”. For the same compound, the antibiotic susceptibility class (host strain YMC14/01/R671) was “R”, the antibiotic susceptibility class (host strain YMC14/01/R732) was “R” and the antibiotic susceptibility class (host strain YMC14/01/R767) was “R”. For the same compound, the antibiotic susceptibility class (host strain YMC14/01/R904) was “R”, the antibiotic susceptibility class (host strain YMC14/01/R905) was “R” and the antibiotic susceptibility class (host strain YMC14/01/R921) was “R”. The antibiotic susceptibility class (host strain YMC14/01/R941) was “R”, the antibiotic susceptibility class (host strain YMC14/01/R958) was “R” and the antibiotic susceptibility class (host strain YMC14/01/R1006) was “R”. For the same compound, the antibiotic susceptibility class (host strain YMC14/01/R1199) was “R”, the antibiotic susceptibility class (host strain YMC14/01/R1659) was “R” and the antibiotic susceptibility class (host strain YMC14/01/R1722) was “R”. For the same compound, the antibiotic susceptibility class (host strain YMC14/01/R1752) was “R”, the antibiotic susceptibility class (host strain YMC14/01/R2429) was “R” and the antibiotic susceptibility class (host strain YMC14/01/R2572) was “R”. For the same compound, the antibiotic susceptibility class (host strain YMC14/01/R2855) was “R”, the antibiotic susceptibility class (host strain YMC14/01/R2945) was “R” and the antibiotic susceptibility class (host strain YMC14/01/R3007) was “R”. For the same compound, the antibiotic susceptibility class (host strain YMC14/01/R3129) was “R”, the antibiotic susceptibility class (host strain YMC14/01/R3317) was “R” and the antibiotic susceptibility class (host strain YMC14/01/R3474) was “R”. The antibiotic susceptibility class (host strain YMC14/01/R3574) was “R”, the antibiotic susceptibility class (host strain YMC14/01/U313) was “R” and the antibiotic susceptibility class (host strain YMC14/01/U318) was “R”. For the same compound, the antibiotic susceptibility class (host strain YMC14/02/L18) was “R”, the antibiotic susceptibility class (host strain YMC14/02/P47) was “R” and the antibiotic susceptibility class (host strain YMC14/02/R1860) was “R”. For the same compound, the antibiotic susceptibility class (host strain YMC14/02/R2417) was “R”, the antibiotic susceptibility class (host strain YMC14/02/R2599) was “R” and the antibiotic susceptibility class (host strain YMC14/02/R2668) was “R”. For the same compound, the antibiotic susceptibility class (host strain YMC14/02/R2758) was “R”, the antibiotic susceptibility class (host strain YMC14/02/R2781) was “R” and the antibiotic susceptibility class (host strain YMC14/02/R3106) was “R”. For the same compound, the antibiotic susceptibility class (host strain YMC14/02/R3419) was “R”, the antibiotic susceptibility class (host strain YMC14/02/U1607) was “R” and the antibiotic susceptibility class (host strain YMC14/03/L9) was “R”. The antibiotic susceptibility class (host strain YMC14/03/P471) was “R”, the antibiotic susceptibility class (host strain YMC14/03/R122) was “R” and the antibiotic susceptibility class (host strain YMC14/03/R217) was “R”. For the same compound, the antibiotic susceptibility class (host strain YMC14/03/R380) was “R”, the antibiotic susceptibility class (host strain YMC14/03/R618) was “R” and the antibiotic susceptibility class (host strain YMC14/03/R2144) was “R”. For the same compound, the antibiotic susceptibility class (host strain YMC14/03/U4616) was “R”, the antibiotic susceptibility class (host strain YMC14/04/R1078) was “R” and the antibiotic susceptibility class (host strain YMC14/04/R1080) was “R”. The “antibiotic susceptibility S/I/R” value (host strain YMC14/06/R2359) was “R”, the “susceptibility category (S/I/R)” value (host strain YMC14/06/R2359) was “R” and the “antibiotic susceptibility S/I/R” value (host strain YMC14/08/R1169) was “R”. The “susceptibility category (S/I/R)” value (host strain YMC14/08/R1169) was “R”, the “antibiotic susceptibility S/I/R” value (host strain YMC14/08/T90) was “R” and the “susceptibility category (S/I/R)” value (host strain YMC14/08/T90) was “R”. For the same compound, the “antibiotic susceptibility S/I/R” value (host strain YMC15/02/R436) was “R”, the “susceptibility category (S/I/R)” value (host strain YMC15/02/R436) was “R” and the “antibiotic susceptibility S/I/R” value (host strain YMC15/02/T28) was “R”. The “susceptibility category (S/I/R)” value (host strain YMC15/02/T28) was “R”, the “antibiotic susceptibility S/I/R” value (host strain YMC15/03/R1604) was “R” and the “susceptibility category (S/I/R)” value (host strain YMC15/03/R1604) was “R”. For the same compound, the “antibiotic susceptibility S/I/R” value (host strain YMC15/09/R1869) was “R”, the “susceptibility category (S/I/R)” value (host strain YMC15/09/R1869) was “R” and the “antibiotic susceptibility S/I/R” value (host strain YMC16/01/P11) was “R”. For the same compound, the “susceptibility category (S/I/R)” value (host strain YMC16/01/P11) was “R”, the “antibiotic susceptibility S/I/R” value (host strain YMC16/01/R123) was “R” and the “susceptibility category (S/I/R)” value (host strain YMC16/01/R123) was “R”. For the same compound, the “antibiotic susceptibility S/I/R” value (host strain YMC16/01/R198) was “R”, the “susceptibility category (S/I/R)” value (host strain YMC16/01/R198) was “R” and the “antibiotic susceptibility S/I/R” value (host strain YMC16/01/R353) was “R”. For the same compound, the “susceptibility category (S/I/R)” value (host strain YMC16/01/R353) was “R”, the “antibiotic susceptibility S/I/R” value (host strain YMC16/01/R380) was “R” and the “susceptibility category (S/I/R)” value (host strain YMC16/01/R380) was “R”. The “antibiotic susceptibility S/I/R” value (host strain YMC16/01/R397) was “R”, the “susceptibility category (S/I/R)” value (host strain YMC16/01/R397) was “R” and the “antibiotic susceptibility S/I/R” value (host strain YMC16/01/R405) was “R”. The “susceptibility category (S/I/R)” value (host strain YMC16/01/R405) was “R”, the “antibiotic susceptibility S/I/R” value (host strain YMC16/03/R4461) was “R” and the “susceptibility category (S/I/R)” value (host strain YMC16/03/R4461) was “R”. The “antibiotic susceptibility S/I/R” value (host strain YMC16/05/R2210) was “R”, the “susceptibility category (S/I/R)” value (host strain YMC16/05/R2210) was “R” and the “antibiotic susceptibility S/I/R” value (host strain YMC16/07/R2512) was “R”. The “susceptibility category (S/I/R)” value (host strain YMC16/07/R2512) was “R”, the “antibiotic susceptibility S/I/R” value (host strain YMC16/09/R2471) was “R” and the “susceptibility category (S/I/R)” value (host strain YMC16/09/R2471) was “R”. For the same compound, the “antibiotic susceptibility S/I/R” value (host strain YMC16/10/R2537) was “R”, the “susceptibility category (S/I/R)” value (host strain YMC16/10/R2537) was “R” and the “antibiotic susceptibility S/I/R” value (host strain YMC16/12/B11422) was “R”. The “susceptibility category (S/I/R)” value (host strain YMC16/12/B11422) was “R”, the “antibiotic susceptibility S/I/R” value (host strain YMC16/12/B11449) was “R” and the “susceptibility category (S/I/R)” value (host strain YMC16/12/B11449) was “R”. The “antibiotic susceptibility S/I/R” value (host strain YMC16/12/B13325) was “R”, the “susceptibility category (S/I/R)” value (host strain YMC16/12/B13325) was “R” and the “antibiotic susceptibility S/I/R” value (host strain YMC16/12/P503) was “R”. The “susceptibility category (S/I/R)” value (host strain YMC16/12/P503) was “R”, the “antibiotic susceptibility S/I/R” value (host strain YMC16/12/R4637) was “R” and the “susceptibility category (S/I/R)” value (host strain YMC16/12/R4637) was “R”. The “antibiotic susceptibility S/I/R” value (host strain YMC17/01/B8053) was “R”, the “susceptibility category (S/I/R)” value (host strain YMC17/01/B8053) was “R” and the “antibiotic susceptibility S/I/R” value (host strain YMC17/01/B10087) was “R”. For the same compound, the “susceptibility category (S/I/R)” value (host strain YMC17/01/B10087) was “R”, the “antibiotic susceptibility S/I/R” value (host strain YMC17/01/B12075) was “R” and the “susceptibility category (S/I/R)” value (host strain YMC17/01/B12075) was “R”. The “antibiotic susceptibility S/I/R” value (host strain YMC17/01/B13454) was “R”, the “susceptibility category (S/I/R)” value (host strain YMC17/01/B13454) was “R” and the “antibiotic susceptibility S/I/R” value (host strain YMC17/01/P518) was “R”. For the same compound, the “susceptibility category (S/I/R)” value (host strain YMC17/01/P518) was “R”, the “antibiotic susceptibility S/I/R” value (host strain YMC17/01/R2812) was “R” and the “susceptibility category (S/I/R)” value (host strain YMC17/01/R2812) was “R”. The “antibiotic susceptibility S/I/R” value (host strain YMC17/02/B14) was “R”, the “susceptibility category (S/I/R)” value (host strain YMC17/02/B14) was “R” and the “antibiotic susceptibility S/I/R” value (host strain YMC17/02/B87) was “R”. For the same compound, the “susceptibility category (S/I/R)” value (host strain YMC17/02/B87) was “R”, the “antibiotic susceptibility S/I/R” value (host strain YMC17/02/B721) was “R” and the “susceptibility category (S/I/R)” value (host strain YMC17/02/B721) was “R”. For the same compound, the “antibiotic susceptibility S/I/R” value (host strain YMC17/02/B4039) was “R”, the “susceptibility category (S/I/R)” value (host strain YMC17/02/B4039) was “R” and the “antibiotic susceptibility S/I/R” value (host strain YMC17/02/B4520) was “R”. For the same compound, the “susceptibility category (S/I/R)” value (host strain YMC17/02/B4520) was “R”, the “antibiotic susceptibility S/I/R” value (host strain YMC17/02/B4864) was “S” and the “susceptibility category (S/I/R)” value (host strain YMC17/02/B4864) was “S”. The “antibiotic susceptibility S/I/R” value (host strain YMC17/02/B8414) was “R”, the “susceptibility category (S/I/R)” value (host strain YMC17/02/B8414) was “R” and the “antibiotic susceptibility S/I/R” value (host strain YMC17/02/P523) was “R”. The “susceptibility category (S/I/R)” value (host strain YMC17/02/P523) was “R”, the “antibiotic susceptibility S/I/R” value (host strain YMC17/02/R541) was “R” and the “susceptibility category (S/I/R)” value (host strain YMC17/02/R541) was “R”. The “antibiotic susceptibility S/I/R” value (host strain YMC17/02/R2392) was “R”, the “susceptibility category (S/I/R)” value (host strain YMC17/02/R2392) was “R” and the “antibiotic susceptibility S/I/R” value (host strain YMC17/03/B4730) was “R”. The “susceptibility category (S/I/R)” value (host strain YMC17/03/B4730) was “R”, the “antibiotic susceptibility S/I/R” value (host strain YMC17/03/B5000) was “R” and the “susceptibility category (S/I/R)” value (host strain YMC17/03/B5000) was “R”. The “antibiotic susceptibility S/I/R” value (host strain YMC17/03/P971) was “R”, the “susceptibility category (S/I/R)” value (host strain YMC17/03/P971) was “R” and the “antibiotic susceptibility S/I/R” value (host strain YMC17/03/R348) was “R”. For the same compound, the “susceptibility category (S/I/R)” value (host strain YMC17/03/R348) was “R”, the “antibiotic susceptibility S/I/R” value (host strain YMC17/03/R585) was “R” and the “susceptibility category (S/I/R)” value (host strain YMC17/03/R585) was “R”. The “antibiotic susceptibility S/I/R” value (host strain YMC17/03/R1888) was “R”, the “susceptibility category (S/I/R)” value (host strain YMC17/03/R1888) was “R” and the “antibiotic susceptibility S/I/R” value (host strain YMC17/03/R3279) was “R”. The “susceptibility category (S/I/R)” value (host strain YMC17/03/R3279) was “R”, the “antibiotic susceptibility S/I/R” value (host strain YMC17/03/R4077) was “R” and the “susceptibility category (S/I/R)” value (host strain YMC17/03/R4077) was “R”. The “antibiotic susceptibility S/I/R” value (host strain YMC17/03/R4607) was “R”, the “susceptibility category (S/I/R)” value (host strain YMC17/03/R4607) was “R” and the “antibiotic susceptibility S/I/R” value (host strain YMC17/04/R488) was “R”. For the same compound, the “susceptibility category (S/I/R)” value (host strain YMC17/04/R488) was “R”, the “antibiotic susceptibility S/I/R” value (host strain YMC17/04/R640) was “R” and the “susceptibility category (S/I/R)” value (host strain YMC17/04/R640) was “R”. For the same compound, the “antibiotic susceptibility S/I/R” value (host strain YMC/17/05/R1095) was “R” and the “susceptibility category (S/I/R)” value (host strain YMC/17/05/R1095) was “R”.
